These results are taken from EP3575287A1, “INHIBITORS OF N-ACYLPHOSPHATIDYLETHANOLAMINE PHOSPHOLIPASE D (NAPE-PLD)” (Universiteit Leiden, priority 2018, dated 2019).

T1 sequence (Q6IQ20 whole entry): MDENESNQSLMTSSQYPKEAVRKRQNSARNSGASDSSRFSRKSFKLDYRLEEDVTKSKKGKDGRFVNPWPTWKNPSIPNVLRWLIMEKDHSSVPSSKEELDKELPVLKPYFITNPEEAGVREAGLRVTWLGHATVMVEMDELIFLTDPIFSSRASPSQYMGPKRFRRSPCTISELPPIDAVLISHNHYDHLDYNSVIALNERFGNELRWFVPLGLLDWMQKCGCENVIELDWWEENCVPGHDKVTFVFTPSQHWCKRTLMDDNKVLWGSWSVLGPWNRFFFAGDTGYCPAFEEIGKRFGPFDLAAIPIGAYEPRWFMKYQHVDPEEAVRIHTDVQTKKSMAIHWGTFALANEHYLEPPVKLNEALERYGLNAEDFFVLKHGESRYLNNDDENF

This test concerns the target T1, human NAPE-PLD (Homo sapiens, UniProt Q6IQ20).
T1 construct: Full length human cDNA NAPE-PLD was obtained from Natsuo Ueda; made in house; host or cells: HEK293T cells, transient transfection (pcDNA3.1); membrane fraction used
Description: In vitro NAPE-PLD activity assay. Format: biochemical. The settings on record: membrane protein fraction of HEK293T cells overexpressing human NAPE-PLD; substrate PED6 1 µM; 30 minutes preincubation at 37 °C. Here is the method: Full length human cDNA NAPE-PLD was obtained from Natsuo Ueda^1 and cloned into mammalian expression vector pcDNA3.1, containing a C-terminal Flag-tag and genes for ampicillin and neomycin resistance. All plasmids were grown in XL-10 Z-competent cells and prepped (Maxi Prep, Qiagen). Sequence analysis for the confirmation of the sequences was performed at the Leiden Genome Technology Centre.
HEK293T were cultured at 37 °C and 7% CO2 in DMEM (Sigma Aldrich, D6546) with glutamax, penicillin (100 µg/ml), streptomycin (100 µg/ml) and 10% New Born Calf Serum iron supplemented (Hyclone SH30072.03). Cells were passaged twice a week to appropriate confluence.
24 hours before transfection 10^7 cells are seeded on a 15 cm dish. Two hours before transfection medium is refreshed, low volume. Transfection is performed with PEI in a ratio of 3:1 with human NAPE-PLD or Mock pcDNA3.1 Neo, 20 µg per dish. Medium is refreshed after 24 hours and cells are harvested after 72 hours.
Cell pellets are re-suspended in lysis buffer: 20 mM Hepes, 2 mM DTT, 0.25 M sucrose, 1 mM MgCl2, 2.5 U/ml benzonase and incubated 30 minutes on ice. The cytosolic fraction (supernatant) is separated from the membranes by ultra-centrifugation (32000 rpm for 30 minutes 100,000g). The pellet is resuspended in storage buffer: 20 mM Hepes, 2 mM DTT (membrane fraction). All samples are stored at -80°C. Enzyme concentrations are determined using a Bradford assay.
The NAPE-PLD activity assay is based on a previously reported method with small alterations.^2 The membrane protein fraction from transient overexpression of human NAPE-PLD in HEK293T cells was diluted to 0.4 mg/ml in assay buffer: 50 mM Tris-HCl (pH 7.5), 0.02% Triton X-100, 150 mM NaCl. The substrate PED6 (Invitrogen) 1 mM stock was consecutively diluted in DMSO (10x) and in assay buffer (10x) to make a 10 µM working solution. […] The assay is performed in a dark Greiner 96 wells plate, end volume 100 µl. The compound or DMSO is incubated with membrane protein lysate (final concentration 0.04 mg/ml) for 30 minutes at 37 °C. […] Mock lysate with DMSO is used for background substraction. IC50 curves are generated used Graphpad Prism v6.
Take `O=C(NCC1CC1)c1cc(N2CCOCC2)nc(N2CCC(c3ccccc3)C2)n1` (centres unmarked) [Example 51, N-(cyclopropylmethyl)-6-morphol ino-2-(3-phenylpyrrolidin-1-yl)pyrimidine-4-carboxamide]: the half-maximal inhibitory concentration (IC50) (in general, the concentration needed to halve the response being measured) is 2.19 µM.

In turn, `CN(CCc1ccccc1)c1nc(C(=O)NCC2CC2)cc(N2CCC(N(C)C)C2)n1` (centres unmarked) [Example 33, N-(cyclopropylmethyl)-6-(3-(dimethylamino)pyrrolidin-1-yl)-2-(methyl(phenethyl)amino)pyrimidine-4-carboxamide] showed a half-inhibitory concentration (IC50) of 9.55 µM.

For `CN(CCc1ccccc1)c1nc(C(=O)NCC2CC2)cc(N2CCC(O)C2)n1` (centres unmarked) [Example 32, N-(cyclopropylmethyl)-6-(3-hydroxypyrrolidin-1-yl)-2-(methyl(phenethyl)amino)pyrimidine-4-carboxamide], the IC50 is 0.224 µM.

As to `CC(C)N(CCc1ccccc1)c1nc(C(=O)NCC2CC2)cc(N2CCOCC2)n1` [Example 50, N-(cyclopropylmethyl)-2-(isopropyl(phenethyl)amino)-6-morpholinopyrimidine-4-carboxamide], the midpoint of inhibition, the IC50, lay at 0.282 µM.

Take `CN(CCc1ccc(Oc2ccccc2)cc1)c1nc(C(=O)NCC2CC2)cc(N2CCOCC2)n1` [Example 53, N-(cyclopropylmethyl)-2-(methyl(4-phenoxyphenethyl)amino)-6-morpholinopyrimidine-4-carboxamide]: the concentration for half-maximal inhibition (IC50) is 3.02 µM.

The molecule `CN(C)c1cc(C(=O)NCC2CC2)nc(N(C)CCc2ccccc2)n1` [Example 76, N-(cyclopropylmethyl)-6-(dimethylamino)-2-(methyl(phenethyl)amino)pyrimidine-4-carboxamide] showed a half-maximal inhibitory concentration (IC50) of 0.288 µM.

With `O=C(NCC1CC1)c1cc(N2CCOCC2)nc(N(CCc2ccccc2)C2CC2)n1` [Example 70, 2-(cyclopropyl(phenethyl)amino)-N-(cyclopropylmethyl)-6-morpholinopyrimidine-4-carboxamide], 1.1 µM corresponded to half-maximal inhibition (IC50).

For `O=C(NCC1CC1)c1cc(N2CCOCC2)nc(N2CCNC(c3ccccc3)C2)n1` (centres unmarked) [Example 82, N-(cyclopropylmethyl)-6-morpholino-2-(3-phenylpiperazin-1-yl)pyrimidine-4-carboxamide], the midpoint of inhibition, the IC50, lay at 7.76 µM.

The molecule `CN(CCc1ccccc1)c1nc(C(=O)NCC2CC2)cc(N2CCC(F)(F)CC2)n1` [Example 2, N-(cyclopropylmethyl)-6-(4,4-difluoropiperidin-1-yl)-2-(methyl(phenethyl)amino)pyrimidine-4-carboxamide] showed a concentration for half-maximal inhibition (IC50) of 8.91 µM.

Molecule `CN(CCc1ccccc1)c1nc(C(=O)NCC2CC2)cc(N2CCCCC2)n1` [Example 3, N-(cyclopropylmethyl)-2-(methyl(phenethyl)amino)-6-(piperidin-1-yl)pyrimidine-4-carboxamide] had a half-inhibitory concentration (IC50) of 0.646 µM.

For the molecule `CN(CCc1ccccc1)c1nc(C(=O)NCC2CC2)cc(N2CC3(COC3)C2)n1` [Example 26, N-(cyclopropylmethyl)-2-(methyl(phenethyl)amino)-6-(2-oxa-6-azaspiro[3.3]heptan-6-yl)pyrimidine-4-carboxamide], the 50% inhibitory concentration (IC50) was 1.66 µM.

As to `CN(CCc1cccs1)c1nc(C(=O)NCC2CC2)cc(N2CCOCC2)n1` [Example 22, N-(cyclopropylmethyl)-2-(methyl(2-(thiophen-2-yl)ethyl)amino)-6-morpholinopyrimidine-4-carboxamide], the IC50 was 1.07 µM.

Consider `CN(CCc1ccc(C(F)(F)F)cc1)c1nc(C(=O)NCC2CC2)cc(N2CCOCC2)n1` [Example 56, N-(cyclopropylmethyl)-2-(methyl(4-(trifluoromethyl)phenethyl)amino)-6-morpholino-pyrimidine-4-carboxamide], for which 6.17 µM corresponded to half-maximal inhibition (IC50).

Turning to `C#CCNC(=O)c1cc(N2CC[C@H](O)C2)nc(N2CCN(Cc3ccc(C4(C(F)(F)F)N=N4)cc3)CC2)n1` [Example 44, (S)-6-(3-hydroxypyrrolidin-1-yl)-N-(prop-2-yn-1-yl)-2-(4-(4-(3-(trifluoromethyl)-3H-diazirin-3-yl)benzyl)piperazin-1-yl)pyrimidine-4-carboxamide], the IC50 is 0.479 µM.

Turning to `CN(CCc1ccccn1)c1nc(C(=O)NCC2CC2)cc(N2CCOCC2)n1` [Example 84, N-(cyclopropylmethyl)-2-(methyl(2-(pyridin-2-yl)ethyl)amino)-6-morpholinopyrimidine-4-carboxamide], half-maximal inhibition (IC50) was put at 12.9 µM.

`O=C(NCC1CC1)c1cc(N2CC[C@H](O)C2)nc(N2CCC[C@H](c3ccccc3)C2)n1` [Example 41, N-(cyclopropylmethyl)-6-((S)-3-hydroxypyrrolidin-1-yl)-2-((R)-3-phenylpiperidin-1-yl)pyrimidine-4-carboxamide] gave an IC50 of 0.251 µM.

Molecule `CN(CCc1ccc(Cl)cc1)c1nc(C(=O)NCC2CC2)cc(N2CCOCC2)n1` [Example 57, 2-((4-chlorophenethyl)(methyl)amino)-N-(cyclopropylmethyl)-6-morphol inopyrimidine-4-carboxamide] gave a half-maximal inhibitory concentration (IC50) of 6.31 µM.

Molecule `CN(CCc1ccccc1)c1nc(C(=O)NCC2CC2)cc(N2CCNCC2)n1` [Example 11, N-(cyclopropylmethyl)-2-(methyl(phenethyl)amino)-6-(piperazin-1-yl)pyrimidine-4-carboxamide] showed an IC50 of 5.37 µM.

`O=C(NCC1CC1)c1cc(N2CCOCC2)nc(N2CCC[C@@H](c3ccccc3)C2)n1` [Example 46, (S)-N-(cyclopropylmethyl)-6-morpholino-2-(3-phenylpiperidin-1-yl)pyrimidine-4-carboxamide] showed an IC50 of 0.209 µM.

Molecule `CN(CCc1ccccc1-c1ccccc1)c1nc(C(=O)NCC2CC2)cc(N2CCOCC2)n1` [Example 71, 2-((2-([1,1'-biphenyl]-2-yl)ethyl)(methyl)amino)-N-(cyclopropylmethyl)-6-morpholino-pyrimidine-4-carboxamide] gave a concentration for half-maximal inhibition (IC50) of 0.49 µM.

`CN(CCc1ccccc1)c1cc(N2CCOCC2)cc(C(=O)NCC2CC2)n1` [Example 79, N-(cyclopropylmethyl)-6-(methyl(phenethyl)amino)-4-morpholinopicolinamide] had an IC50 of 10.5 µM.

In the case of `CN(CCc1ccccc1)c1nc(C(=O)NCC2CC2)cc(N2CCN(C(=O)c3ccccc3)CC2)n1` [Example 16, 6-(4-benzoylpiperazin-1-yl)-N-(cyclopropylmethyl)-2-(methyl(phenethyl)amino)pyrimidine-4-carboxamide], half-maximal inhibition (IC50) was put at 7.76 µM.

The molecule `CCCCNC(=O)c1cc(N2CCOCC2)nc(N(C)CCc2ccccc2)n1` [Example 9, N-butyl-2-(methyl (phenethyl)amino)-6-morpholinopyrimidine-4-carboxamide] showed an IC50 of 6.76 µM.

`CN(CCc1ccccc1)c1nc(C(=O)NCC2CC2)cc(N2CCSCC2)n1` [Example 5, N-(cyclopropylmethyl)-2-(methyl(phenethyl)amino)-6-thiomorpholinopyrimidine-4-carboxamide] showed an IC50 of 2.63 µM.

`CN(CCc1ccccc1)c1nc(C(=O)NCC2CC2)cc(-n2cccn2)n1` [Example 24, N-(cyclopropylmethyl)-2-(methyl(phenethyl)amino)-6-(1H-pyrazol-1-yl)pyrimidine-4-carboxamide] had an IC50 of 1.2 µM.

As for `CN(CCc1ccccc1)c1nc(C(=O)NC2CC2)cc(N2CCOCC2)n1` [Example 13, N-cyclopropyl-2-(methyl (phenethyl)amino)-6-morpholinopyrimidine-4-carboxamide], the half-maximal inhibitory concentration (IC50) is 3.72 µM.
